Measurements as given in patent US7670767B1, “Genetic alterations associated with cancer” (The Regents of the University of California, priority 1997, dated 2010).

How the values were obtained:
[1] = test system: OVCAR3 cells; experiment: programmed cell death, fluorescence based measurement of free DNA ends (Apo direct); parameters: species or system human
Method: This decrease in viability (FIG. 5B) was associated with an increased rate of programmed cell death at 24 (24% vs 51%) and 48 hour (22% vs 52%) as assessed by a fluorescence based measurement of free DNA ends Apo direct, Phoenix Flow Systems.

[2] = test system: OVCAR3 cells; experiment: MTT viability assay; type: cell-based, human
Method: NOE, MC[MUT] or OVCAR3 (as indicated) were starved of serum overnight and then cultured in 0.5% serum. […] Cell proliferation and viability assay was assessed before and after treatment with the PI3-kinase inhibitor LY294002 as follows. Cells were cultured in 96-well plates (15×10^3 cells/well) and serum starved overnight prior to the addition of LY294002 (Calbiochem) at various concentrations. […] For viability assay, cells were incubated with LY294002 as described above for 96 hours. MTT (25 ml of 5 ml/ml in PBS) was added to each well and incubated at 37° C. for 2 hours. Cells were then lysed by addition of 100 ml lysis buffer (20% SDS in 50% N,N-dimethylformamide, pH4.7). The cultures were set at 37° C. overnight and measured by microplate reader at 570 nm wavelength. Percent Maximum was converted from OD570 as indicated above.

For `O=c1cc(N2CCOCC2)oc2c(-c3ccccc3)cccc12` [LY294002], the “rate of programmed cell death” value ([1]; 24 hour, printed as 24% vs 51%) was 51%, the “rate of programmed cell death” value ([1]; 48 hour, printed as 22% vs 52%) was 52% and the “times more sensitive to the effect of LY294002 (OVCAR3 vs NOE or MCF10F)” value ([2]; in serum free media) was 100 times. The “times more sensitive to the effect of LY294002 (OVCAR3 vs NOE or MCF10F)” value ([2]; in the presence of 0.5% FCS) was 10 times.
